Source: patent publication US8802673B2, “Heterocyclic amine derivatives” (Hoffmann-La Roche Inc, priority 2011, dated 2014)

Experiments:
mouse TAAR1 = mouse TAAR1 (Mus musculus (Mouse), UniProt Q923Y8); experiment: Radioligand binding assay on mouse TAAR1; settings: mouse TAAR1 (first value of the cell), HEK-293 membranes; read-out: Ki (μM) mouse/rat
Procedure: (§1) Construction of TAAR Expression Plasmids and Stably Transfected Cell Lines
(§2) For the construction of expression plasmids the coding sequences of human, rat and mouse TAAR 1 were amplified from genomic DNA essentially as described by Lindemann et al.. The Expand High Fidelity PCR System (Roche Diagnostics) was used with 1.5 mM Mg^2+ and purified PCR products were cloned into pCR2.1-TOPO cloning vector (Invitrogen) following the instructions of the manufacturer. PCR products were subcloned into the pIRESneo2 vector (BD Clontech, Palo Alto, Calif.), and expression vectors were sequence verified before introduction in cell lines.
(§3) HEK293 cells (ATCC #CRL-1573) were cultured essentially as described by Lindemann et al. (2005). For the generation of stably transfected cell lines HEK293 cells were transfected with the pIRESneo2 expression plasmids containing the TAAR coding sequences (described above) with Lipofectamine 2000 (Invitrogen) according to the instructions of the manufacturer, and 24 hrs post transfection the culture medium was supplemented with 1 mg/ml G418 (Sigma, Buchs, Switzerland). After a culture period of about 10 d clones were isolated, expanded and tested for responsiveness to trace amines (all compounds purchased from Sigma) with the cAMP Biotrak Enzyme immunoassay (EIA) System (Amersham) following the non-acetylation EIA procedure provided by the manufacturer.
Radioligand Binding Assay on Mouse TAAR1
Membrane Preparation and Radioligand Binding.
(§4) HEK-293 cells stably expressing mouse TAAR1 were maintained at 37° C. and 5% CO2 in DMEM high glucose medium, containing fetal calf serum (10%, heat inactivated for 30 min at 56° C.), penicillin/streptomycin (1%), and 375 μg/ml geneticin (Gibco). Cells were released from culture flasks using trypsin/EDTA, harvested, washed twice with ice-cold PBS (without Ca^2+ and Mg^2+), pelleted at 1,000 rpm for 5 min at 4° C., frozen and stored at −80° C. Frozen pellets were suspended in 20 ml HEPES-NaOH (20 mM, pH 7.4) containing 10 mM EDTA and homogenized with a Polytron (PT 6000, Kinematica) at 14,000 rpm for 20 s. The homogenate was centrifuged at 48,000×g for 30 min at 4° C. Subsequently, the supernatant was removed and discarded, and the pellet resuspended in 20 ml HEPES-NaOH (20 mM, pH 7.4) containing 0.1 mM EDTA using the Polytron (20 s at 14,000 rpm). This procedure was repeated and the final pellet resuspended in HEPES-NaOH containing 0.1 mM EDTA and homogenized using the Polytron. Typically, aliquots of 2 ml membrane portions were stored at −80° C. With each new membrane batch the dissociation constant (Kd) was determined via a saturation curve. […] All compounds were tested at a broad range of concentrations (10 pM to 10 μM) in duplicates. […] The 96 deep well plates were incubated for 1 hr at 4° C. Incubations were terminated by rapid filtration through Unifilter-96 plates (Packard Instrument Company) and glass filters GF/C (Perkin Elmer) presoaked for 1 hr in polyethylenimine (0.3%) and washed 3 times with 1 ml of cold binding buffer. After addition of 45 μl of Microscint 40 (PerkinElmer) the Unifilter-96 plate was sealed and after 1 hr the ratioactivity counted using a TopCount Microplate Scintillation Counter (Packard Instrument Company).

rat TAAR1 = rat TAAR1 (Rattus norvegicus (Rat), UniProt Q923Y9); experiment: Radioligand binding assay on rat TAAR1; settings: rat TAAR1 (second value of the cell), HEK-293 membranes; read-out: Ki (μM) mouse/rat
Chain of rat TAAR1 (Q923Y9 whole entry): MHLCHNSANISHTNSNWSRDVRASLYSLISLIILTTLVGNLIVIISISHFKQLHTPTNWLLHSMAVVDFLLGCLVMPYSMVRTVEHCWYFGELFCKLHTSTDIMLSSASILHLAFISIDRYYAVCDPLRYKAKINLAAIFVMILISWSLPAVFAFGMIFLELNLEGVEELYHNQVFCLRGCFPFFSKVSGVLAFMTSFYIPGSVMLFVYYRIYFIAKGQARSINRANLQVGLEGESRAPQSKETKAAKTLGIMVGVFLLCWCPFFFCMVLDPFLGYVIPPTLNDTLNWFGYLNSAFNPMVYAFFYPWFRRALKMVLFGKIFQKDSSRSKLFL
Procedure: as §1, §2, §3
Radioligand Binding Assay on Rat TAAR1
Membrane Preparation and Radioligand Binding
as §4, with “rat” for “mouse”

Chain of mouse TAAR1 (Q923Y8 whole entry): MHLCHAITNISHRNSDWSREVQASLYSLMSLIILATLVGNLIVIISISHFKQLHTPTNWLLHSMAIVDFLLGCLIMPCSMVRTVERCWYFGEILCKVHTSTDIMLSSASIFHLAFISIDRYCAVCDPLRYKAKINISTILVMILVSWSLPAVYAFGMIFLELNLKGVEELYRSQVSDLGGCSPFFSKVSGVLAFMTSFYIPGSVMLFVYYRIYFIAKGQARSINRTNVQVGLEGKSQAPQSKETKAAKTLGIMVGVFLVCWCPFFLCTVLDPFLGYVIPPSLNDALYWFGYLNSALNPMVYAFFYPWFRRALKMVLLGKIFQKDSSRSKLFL

`Clc1ccc(CNc2ccc([C@H]3CNCCO3)cc2)cc1Cl` [Example 30, (3,4-Dichloro-benzyl)-((S)-4-morpholin-2-yl-phenyl)-amine] showed a Ki (mouse TAAR1) of 0.0051 µM and a Ki (rat TAAR1) of 0.0417 µM.

With `Fc1ccc(CNc2ccc([C@H]3CNCCO3)cc2)cc1` [Example 31, (4-Fluoro-benzyl)-((S)-4-morpholin-2-yl-phenyl)-amine] the Ki (mouse TAAR1) was 0.0452 µM and the Ki (rat TAAR1) was 0.222 µM.

`Clc1ccc(CNc2ccc([C@H]3CNCCO3)cc2)cn1` [Example 32, (S)—N-((6-Chloropyridin-3-yl)methyl)-4-(morpholin-2-yl)aniline] was tested, and the Ki (mouse TAAR1) was 0.0357 µM and the Ki (rat TAAR1) was 1.24 µM.

For `FC(F)(F)c1ccc(CNc2ccc([C@H]3CNCCO3)cc2)cn1` [Example 33, (S)-4-(Morpholin-2-yl)-N-((6-(trifluoromethyl)pyridin-3-yl)methyl)aniline], the Ki (mouse TAAR1) was 0.047 µM and the Ki (rat TAAR1) was 0.544 µM.

For `Clc1ccc(CCNc2ccc([C@H]3CNCCO3)cc2)cc1` [Example 34, [2-(4-Chloro-phenyl)-ethyl]-((S)-4-morpholin-2-yl-phenyl)-amine], the Ki (mouse TAAR1) was 0.0042 µM and the Ki (rat TAAR1) was 0.0181 µM.

`Fc1cc(Cl)ccc1CNc1ccc([C@H]2CNCCO2)cc1` [Example 35, (4-Chloro-2-fluoro-benzyl)-((S)-4-morpholin-2-yl-phenyl)-amine] gave a Ki (mouse TAAR1) of 0.0096 µM and a Ki (rat TAAR1) of 0.188 µM.

Work on `CCc1ccc(CNc2ccc([C@H]3CNCCO3)cc2)cc1` [Example 36, (4-Ethyl-benzyl)-((S)-4-morpholin-2-yl-phenyl)-amine] yielded a Ki (mouse TAAR1) of 0.0288 µM and a Ki (rat TAAR1) of 0.163 µM.

For `Clc1ccc(Nc2ccc([C@H]3CNCCO3)cc2)nc1` [Example 38, (5-Chloro-pyridin-2-yl)-((S)-4-morpholin-2-yl-phenyl)-amine], the Ki (mouse TAAR1) was 0.0011 µM and the Ki (rat TAAR1) was 0.0544 µM.

In the case of `COc1ccnc(Nc2ccc([C@H]3CNCCO3)cc2)c1` [Example 39, (S)-4-Methoxy-N-(4-(morpholin-2-yl)phenyl)pyridin-2-amine], the Ki (mouse TAAR1) is reported as 0.004 µM and the Ki (rat TAAR1) is reported as 0.251 µM.

Work on `Fc1cc(Nc2ccc([C@H]3CNCCO3)cc2)cnc1Cl` [Example 40, (S)-6-Chloro-5-fluoro-N-(4-(morpholin-2-yl)phenyl)pyridin-3-amine] yielded a Ki (mouse TAAR1) of 0.0026 µM and a Ki (rat TAAR1) of 0.188 µM.

Work on `FC(F)(F)c1cccnc1Nc1ccc([C@H]2CNCCO2)cc1` [Example 41, (S)—N-(4-(Morpholin-2-yl)phenyl)-3-(trifluoromethyl)pyridin-2-amine] yielded a Ki (mouse TAAR1) of 0.27 µM and a Ki (rat TAAR1) of 1.08 µM.

`FC(F)(F)c1ccnc(Nc2ccc([C@H]3CNCCO3)cc2)c1` [Example 42, (S)—N-(4-(Morpholin-2-yl)phenyl)-4-(trifluoromethyl)pyridin-2-amine] was tested, and the Ki (mouse TAAR1) was 0.0023 µM and the Ki (rat TAAR1) was 0.0518 µM.

With `Fc1cncc(Nc2ccc([C@H]3CNCCO3)cc2)c1` [Example 43, (S)-5-Fluoro-N-(4-(morpholin-2-yl)phenyl)pyridin-3-amine] the Ki (mouse TAAR1) was 0.0269 µM and the Ki (rat TAAR1) was 0.648 µM.

With `c1ccc2cc(Nc3ccc([C@H]4CNCCO4)cc3)ccc2c1` [Example 44, ((S)-4-Morpholin-2-yl-phenyl)-naphthalen-2-yl-amine] the Ki (mouse TAAR1) was 0.0007 µM and the Ki (rat TAAR1) was 0.0118 µM.

In the case of `Brc1ccc(CNc2ccc([C@H]3CNCCO3)cc2)cc1` [Example 45, (4-Bromo-benzyl)-((S)-4-morpholin-2-yl-phenyl)-amine], the Ki (mouse TAAR1) is reported as 0.0061 µM and the Ki (rat TAAR1) is reported as 0.126 µM.

`c1ccc2nc(Nc3ccc([C@H]4CNCCO4)cc3)ccc2c1` [Example 46, ((S)-4-Morpholin-2-yl-phenyl)-quinolin-2-yl-amine] was tested, and the Ki (mouse TAAR1) was 0.0008 µM and the Ki (rat TAAR1) was 0.0643 µM.

`Clc1ccc2nc(Nc3ccc([C@H]4CNCCO4)cc3)ccc2c1` [Example 47, (S)-6-Chloro-N-(4-(morpholin-2-yl)phenyl)quinolin-2-amine] was tested, and the Ki (mouse TAAR1) was 0.0012 µM and the Ki (rat TAAR1) was 0.0067 µM.

`FC(F)(F)c1cc(Nc2ccc([C@H]3CNCCO3)cc2)c2cccc(C(F)(F)F)c2n1` [Example 49, (S)—N-(4-(Morpholin-2-yl)phenyl)-2,8-bis(trifluoromethyl)quinolin-4-amine] gave a Ki (mouse TAAR1) of 0.0266 µM and a Ki (rat TAAR1) of 0.104 µM.

In the case of `Clc1ccc2ncnc(Nc3ccc([C@H]4CNCCO4)cc3)c2c1` [Example 50, (S)-6-Chloro-N-(4-(morpholin-2-yl)phenyl)quinazolin-4-amine], the Ki (mouse TAAR1) is reported as 0.005 µM and the Ki (rat TAAR1) is reported as 0.0608 µM.

With `Clc1nc2ccccc2cc1CNc1ccc([C@H]2CNCCO2)cc1` [Example 51, (S)—N-((2-Chloroquinolin-3-yl)methyl)-4-(morpholin-2-yl)aniline] the Ki (mouse TAAR1) was 0.0363 µM and the Ki (rat TAAR1) was 0.28 µM.

With `Clc1cccc2ccc(Nc3ccc([C@H]4CNCCO4)cc3)nc12` [Example 52, (S)-8-Chloro-N-(4-(morpholin-2-yl)phenyl)quinolin-2-amine] the Ki (mouse TAAR1) was 0.0005 µM and the Ki (rat TAAR1) was 0.0084 µM.

`Brc1cccc2nc(Nc3ccc([C@H]4CNCCO4)cc3)ccc12` [Example 53, (S)-5-Bromo-N-(4-(morpholin-2-yl)phenyl)quinolin-2-amine] was tested, and the Ki (mouse TAAR1) was 0.0012 µM and the Ki (rat TAAR1) was 0.0045 µM.

In the case of `Clc1cc(Nc2ccc([C@H]3CNCCO3)cc2)nc2ccccc12` [Example 54, (S)-4-Chloro-N-(4-(morpholin-2-yl)phenyl)quinolin-2-amine], the Ki (mouse TAAR1) is reported as 0.0008 µM and the Ki (rat TAAR1) is reported as 0.0138 µM.

`Fc1ncccc1Nc1ccc([C@H]2CNCCO2)cc1` [Example 55, (2-Fluoro-pyridin-3-yl)-((S)-4-morpholin-2-yl-phenyl)-amine] gave a Ki (mouse TAAR1) of 0.738 µM and a Ki (rat TAAR1) of 1.98 µM.

`Cc1cc(Br)cnc1Nc1ccc([C@H]2CNCCO2)cc1` [Example 56, (S)-5-Bromo-3-methyl-N-(4-(morpholin-2-yl)phenyl)pyridin-2-amine] showed a Ki (mouse TAAR1) of 0.0372 µM and a Ki (rat TAAR1) of 0.211 µM.

`Fc1cc(Br)cnc1Nc1ccc([C@H]2CNCCO2)cc1` [Example 57, (S)-5-Bromo-3-fluoro-N-(4-(morpholin-2-yl)phenyl)pyridin-2-amine] gave a Ki (mouse TAAR1) of 0.0023 µM and a Ki (rat TAAR1) of 0.0866 µM.

Compound `Clc1cnc(Nc2ccc([C@H]3CNCCO3)cc2)c(Cl)c1` [Example 58, (S)-3,5-Dichloro-N-(4-(morpholin-2-yl)phenyl)pyridin-2-amine] has a Ki (mouse TAAR1) of 0.0704 µM and a Ki (rat TAAR1) of 0.584 µM.

`Fc1cc(Cl)ccc1Nc1ccc([C@H]2CNCCO2)cc1` [Example 59, (S)-4-Chloro-2-fluoro-N-(4-(morpholin-2-yl)phenyl)aniline] was tested, and the Ki (mouse TAAR1) was 0.0049 µM and the Ki (rat TAAR1) was 0.207 µM.

In the case of `CN(c1ccc(Cl)cc1)c1ccc([C@H]2CNCCO2)cc1` [Example 60, (4-Chloro-phenyl)-methyl-((S)-4-morpholin-2-yl-phenyl)-amine], the Ki (mouse TAAR1) is reported as 0.0222 µM and the Ki (rat TAAR1) is reported as 0.758 µM.

`Brc1cnc(Nc2ccc([C@H]3CNCCO3)cc2)c(Br)c1` [Example 61, (S)-3,5-Dibromo-N-(4-(morpholin-2-yl)phenyl)pyridin-2-amine] showed a Ki (mouse TAAR1) of 0.0591 µM and a Ki (rat TAAR1) of 0.502 µM.
